The subject of series [1] is Nucleic Acid. The settings on record: Bos taurus.
Description: Increase of calf thymus DNA denaturation temperature (delta Tm)
Series [2] is described as follows: physchem.
Description: Acid ionization constant is determined
For series [3], the system named is KB.
Description: Cytotoxicity in vitro against KB cell line
Series [4] deals with Candida albicans. Description: microbe, parasite or virus in culture.
Description: Tested for antimicrobial activity against Candida albicans (clinical isolate) at concentration of 0.01-5 uM/mL
Series [5] concerns Micrococcus luteus. The experiment in a line: microbe, parasite or virus in culture.
Description: Tested for antimicrobial activity against Micrococcus luteus PCM 525 at concentration of 0.01-5 uM/mL
Series [6] deals with Staphylococcus aureus. The experiment in a line: microbe, parasite or virus in culture.
Description: Tested for antimicrobial activity against Staphylococcus aureus PCM 458 at concentration of 0.01-5 uM/mL
Series [7] has as its system Trichophyton benhamiae. The experiment in a line: microbe, parasite or virus in culture.
Description: Tested for antimicrobial activity against Trichophyton mentagrophytes (clinical isolate) at concentration of 0.01-5 uM/mL

This is an account of results in ChEMBL document CHEMBL1127370, “Synthesis and structure-activity relationship of methyl-substituted indolo[2,3-b]quinolines: novel cytotoxic, DNA topoisomerase II inhibitors” (J Med Chem, 1994).

≈ marks a conversion by molar mass, not a printed value.

`Cc1cccc2c(C)c3c(nc12)[nH]c1ccccc13`: the ΔTm in series [1] worked out at 1.1 °C. The molecule also showed a pKa in series [2] of 5.78. This molecule also returned an ID50 in series [3] of 0.1 uM ml-1.

On to `c1ccc2[nH]c3nc4ccccc4c-3cc2c1`, for which the shift in melting temperature (ΔTm) in series [1] is 0.3 °C. In addition, in series [2], the pKa was found to be 5.55. Moreover, in series [3], the ID50 came out at 0.6 uM ml-1.

On to `Cc1ccc2c(c1)c(C)c1c3ccccc3nc-1n2C`, for which the MIC in series [4] was 15 µM (≈ 3.91 µg/mL); in series [5] it was 30 µM (≈ 7.81 µg/mL); in series [6], 60 µM (≈ 15.6 µg/mL); in series [7], 30 µM (≈ 7.81 µg/mL). Further, in series [1], the thermal shift (ΔTm) came to 13.3 °C. Moreover, the pKa in series [2] was found to be 7.6. This molecule registered an ID50 in series [3] of 0.003 uM ml-1.

Take `Cc1ccc2nc3n(C)c4ccc(C)cc4c(C)c-3c2c1`: the MIC in series [4] came out at 15 µM (≈ 4.12 µg/mL); in series [5], 15 µM (≈ 4.12 µg/mL); in series [6] it was 30 µM (≈ 8.23 µg/mL); in series [7], 30 µM (≈ 8.23 µg/mL). In series [1], the ΔTm worked out at 19 °C. The same molecule showed a pKa in series [2] of 7.68. In addition, the ID50 in series [3] came out at 0.002 uM ml-1.

Consider `Cc1c2c3ccccc3nc-2n(C)c2ccccc12`, for which the MIC in series [4] was found to be 30 µM (≈ 7.39 µg/mL); in series [5], 60 µM (≈ 14.8 µg/mL); in series [6], 120 µM (≈ 29.6 µg/mL); in series [7], 60 µM (≈ 14.8 µg/mL). Moreover, in series [1], the ΔTm turned out to be 11 °C. Besides, the pKa in series [2] was 7.45. The ID50 in series [3] worked out at 0.004 uM ml-1.

As to `Cc1ccc2[nH]c3nc4ccccc4c(C)c3c2c1`, in series [1], the ΔTm was found to be 0.9 °C. For the same molecule, the pKa in series [2] is 5.8. The molecule further showed an ID50 in series [3] of 0.1 uM ml-1.

For `Cc1c2c3ccccc3nc-2[nH]c2ccccc12`, in series [1], the ΔTm was 0.7 °C. The molecule further returned a pKa in series [2] of 5.7. Besides, in series [3], the ID50 is recorded as 0.2 uM ml-1.

`COc1cccc2c1C(=O)c1c(O)c3c(c(O)c1C2=O)C[C@@](O)(C(=O)CO)C[C@@H]3O[C@H]1C[C@H](N)[C@H](O)[C@H](C)O1`: the shift in melting temperature (ΔTm) in series [1] came to 13 °C.

For the molecule `Cn1c2nc3ccccc3c-2cc2ccccc21` [NEOCRYPTOLEPINE], the MIC was 120 µM (≈ 27.9 µg/mL) in series [4], 250 µM (≈ 58.1 µg/mL) in series [5], 250 µM (≈ 58.1 µg/mL) in series [6] and 60 µM (≈ 13.9 µg/mL) in series [7]. For the same molecule, the ΔTm in series [1] was determined as 5.2 °C. Further, in series [2], the pKa came out at 7.24. Further, the ID50 in series [3] stood at 0.006 uM ml-1.

Turning to `Cc1ccc2nc3[nH]c4ccc(C)cc4c(C)c-3c2c1`, the shift in melting temperature (ΔTm) in series [1] amounted to 1.6 °C. The molecule further returned a pKa in series [2] of 5.98. The ID50 in series [3] is given as 0.1 uM ml-1.

For the molecule `Cc1ccc2[nH]c3nc4ccccc4c-3c(C)c2c1`, the shift in melting temperature (ΔTm) in series [1] was 1.4 °C. For the same molecule, in series [2], the pKa is 5.73. The ID50 in series [3] is 0.1 uM ml-1.

For `Cc1c2c3ccccc3nc-2n(C)c2c(C)cccc12`, the MIC in series [4] was found to be 120 µM (≈ 31.2 µg/mL); in series [5], 120 µM (≈ 31.2 µg/mL); in series [6] it was 250 µM (≈ 65.1 µg/mL); in series [7], 60 µM (≈ 15.6 µg/mL). Further, in series [1], the shift in melting temperature (ΔTm) was found to be 10.4 °C. Further, the pKa in series [2] was 7.62. In addition, the ID50 in series [3] is 0.009 uM ml-1.

In the case of `Cc1c2ccncc2c(C)c2c1[nH]c1ccccc12` [ELLIPTECINE], the ΔTm in series [1] worked out at 9.8 °C. For the same molecule, the pKa in series [2] is 7.4. Moreover, the ID50 in series [3] is given as 0.07 uM ml-1.

What is called ΔTm is the shift of the melting midpoint relative to a reference. The term pKa denotes the negative logarithm of the acid dissociation constant. Lower therefore signals a group that gives up its proton readily.
